Measurements from a melting point compilation (Tetko et al.; mined from patent text by program, amines drawn as free bases though some values may be those of a salt).

SMILES	melting point
COc1cc2nc(N3CCN(C(=O)C4CCCC4)CC3)nc(N)c2cc1OC	256 to 259 °C
CC(C)(C)c1cc(NC(=O)Nc2ccc(Oc3ccncc3)cc2)[nH]n1	178 to 179 °C
CCC(NC(=O)OC)c1ccc(Cl)c2nc3n(c12)CCCN3c1c(Cl)cc(Cl)cc1Cl (stereo not drawn)	231 to 233 °C
CCN(CC)C(=O)c1cc(-c2ccccc2)c(=O)n2c1-c1cc(Cl)ccc1CN2	192 to 194 °C
CC(/C=C/C=C(\C)C1=Cc2cc(C(C)(C)C)cc(C)c2OC1)=C\C(=O)O	227 to 228 °C
O=[N+]([O-])c1ccc(S(=O)(=O)On2nnc3ccccc32)cc1	120 to 122 °C
CCCCOC(=O)COCCCNC(=O)[C@H](C)NC(=O)OCc1ccccc1	54 to 55 °C
CC(C)(C)OC(=O)NCCc1c[nH]c2ccc(Oc3ccccc3)c(Cl)c12	163 to 166 °C
Oc1ccc(Nn2cccc2)c2ccccc12	83 to 84 °C
CCOC(=O)Nc1[nH]c2ccc(Sc3ccccc3)cc2c1C#N	181 to 182 °C
CCOC(=O)c1cn2c(-c3nn(C)c(OC(F)F)c3Cl)c(F)cc(Cl)c2n1	140 to 143 °C
CCOCc1nc2c(N)nc3cc(OCCc4c[nH]c5ccccc45)ccc3c2n1CC(C)(C)O	220 to 222 °C
CC(=O)Nc1ccc(NC(C)=O)c2c1C(=O)c1ccccc1C2=O	278 to 280 °C
COc1cc(Nc2nccc(Nc3ccc(CCO)cc3)n2)cc(OC)c1OC	172 °C
Cc1cccc(-c2sc(N)nc2-c2ccnc(-c3ccc(C(=O)NC4CCOCC4)cc3)c2)n1	283 °C
COc1cccc(C(CN2CCN(c3cccc(C(F)(F)F)c3)CC2)C2(O)CCCC2)c1 (stereo not drawn)	158 to 160 °C
COc1cccc2c(=O)cc(C=Cc3ccc(C#N)cc3)oc12	274 to 275 °C
O=C(c1cccs1)c1ccc(Cl)cc1Cl	75 °C
Cc1oc(=O)c(Nc2ccc(I)cc2)nc1Cl	203 to 205 °C
CN(C)Cc1nnc2n1-c1ccc(Cl)cc1C(c1ccccc1Cl)=NC2	199 to 201 °C
O=C(Cc1ccc(Cl)c(Cl)c1)N1CCN(Cc2ccccc2)CC1CO (stereo not drawn)	148 to 150 °C
C1=C(c2c[nH]c3ccccc23)CCN(CCCOc2cccc3[nH]ccc23)C1	192 to 194 °C
CN1C(=O)CN(c2cccc(I)c2)NC1=O	180 °C
O=C(O)CCCn1c(=O)[nH]c2ccccc21	180 °C
CCOC(=O)CCCn1cc(C(=O)c2ccc(OCc3ccc(C)cc3)c(O)c2)c2ccccc21	125 to 127 °C

SMILES	melting point
CC(C(=O)O)c1ccc(N=c2sccn2C)cc1 (stereo not drawn)	130 to 132 °C
CCc1c(N)c(C)cc(Cc2cc(C)c(N)c(CC)c2Cl)c1Cl	143 to 148 °C
Cc1ccccc1-n1ccc2c(NCCO)nc3c(C)cccc3c21	187 to 188 °C
CCOC(=O)c1cc2ccccc2n1Cc1ccc(Cl)cc1	107 to 108 °C
CN1CC(CCCl)Oc2ccc(Cl)cc2C1=S (stereo not drawn)	102 to 104 °C
Cc1oc(-c2ccccc2)nc1COc1ccc(CCc2oc(-c3ccccc3)nc2CO)cc1	142 to 143 °C
COc1cccc(-c2ccc3nnn(Cc4ccc5ncccc5c4)c3n2)c1	133 to 135 °C
O=C(CCc1ccccc1)c1c(O)c2cccnc2n(-c2ccccc2)c1=O	233 to 234 °C
COc1cn(C)c(=O)c(OS(=O)(=O)C(F)(F)F)n1	107 to 108 °C
Clc1ccc(N2CC3CCC(C2)N3Cc2ccccc2)cc1	115 to 117 °C
CCN(C(=O)c1ccc2nonc2c1)C1CCCCC1	51 to 52 °C
O=C(Nc1cccc(-c2ccnc3c(C(=O)c4cccs4)cnn23)c1)c1cccnc1	191 to 194 °C
Cc1cnc(-c2ncn3c2[C@@H]2CCCN2C(=O)c2c(Cl)cccc2-3)o1	228 to 230 °C
CN1C(=O)[C@H](NC(=O)Nc2ccc(Cl)cc2Cl)N=C(c2ccccc2)c2ccccc21	215 to 216 °C
CCn1ncc2c3noc(-c4ccc(OC)cc4)c3cnc21	215 to 216 °C
CC(=O)Nc1cc(C)cc(OCc2ccccc2)c1C	139 to 140 °C
CC(=O)Nc1nc(C)c(S(=O)(=O)NC(CO)CO)s1	217 °C
O=C(CCCl)c1cc2c3c(c1)CCN3C(=O)CC2	154 to 155 °C
CCOC(=O)NC(=S)OCc1ccccc1	96 °C
CCN1CCc2ccc(OC)c(Nc3ncc(Cl)c(Nc4ccccc4S(=O)(=O)NC)n3)c2CC1	171 to 188 °C
O=C(Nc1cccc2ccccc12)c1ccn2c1CSC2c1cccnc1 (stereo not drawn)	136 °C
OCCC(CCO)c1ccccn1	44 °C
CCOC(=O)Cc1c(C)n(-c2ncnc3ccccc23)c2ccc(OC)cc12	121 to 123 °C
COc1ccccc1-c1cc2[nH]c3ccc(O)cc3c2c2c1C(=O)NC2=O	216 °C
COC(=O)C=Cc1ccc2[nH]ccc2c1	138 to 140 °C

SMILES	melting point
COc1cc2c(cc1S(=O)(=O)c1ccc(Br)cc1)[C@@H](N1CCCC1=O)[C@H](O)C(C)(C)O2 (relative stereo)	281 to 282 °C
O=C(c1ccc(-c2ccc(Cl)cc2)cc1)C(O)O	275 to 285 °C
Cc1cc(Cl)cc(C(=O)NC(C)(C#N)C2CC2)c1NC(=O)c1cc(C(F)(F)F)nn1-c1ncccc1Cl (stereo not drawn)	226 to 228 °C
CCC(=O)Nc1ccc2c(c1)C(=O)c1cc(NC(=O)CC)ccc1C2=O	291 °C
COc1ccc(C(=O)Nc2ccccc2Nc2ccccc2)cc1	148 to 150 °C
COC(=O)c1cc(NC(=O)c2cc(NC(=O)c3cc(NC(=O)OC(C)(C)C)cn3C)cn2C)cn1C	134 °C
O=C1Nc2ccccc2CC(C(=O)Nc2ccc(Br)cc2)C1=O (stereo not drawn)	226 to 228 °C
O=S(=O)(c1ccccc1)n1c2ccc(CCc3ccccc3)cc2c2cc(Cl)cnc21	158 to 162 °C
CC1C(C)(C)c2ccc(C#Cc3ccc(C=O)cc3)cc2C1(C)C (stereo not drawn)	106 to 107 °C
CC(OCc1cc2nc(C(F)(F)F)ccc2n1S(=O)(=O)c1ccccc1)C(=O)O (stereo not drawn)	140 °C
Cc1cnc2n1N=C(c1ccc(F)cc1)c1cc3c(cc1C2)OCO3	190 °C
NNC(=O)c1ccc(OCc2cccc(Br)c2)cc1O	201 to 203 °C
O=S(=O)(NC1CCN(S(=O)(=O)c2cccs2)C1)c1ccc(Cl)cc1 (stereo not drawn)	115 to 116 °C
Clc1ccc(-c2cc(-c3ccccc3)c(-c3ccccc3)s2)cc1Cl	101 to 103 °C
Cc1cccc2[nH]c(C(=O)NCCc3ccc(CCCC(=O)O)cc3)cc12	132 to 134 °C
Cc1onc(C(=O)c2ccccc2Cl)c1N	75 to 78 °C
CC(C)CNC(=O)C=CC=CCCCCCCCOc1cccc(Cl)n1	80 to 81 °C
O=C1NC(Cc2ccc(OCc3ccccc3)cn2)C(=O)NC1Cc1ccccc1 (stereo not drawn)	215 to 218 °C
CCNC(=O)CC1CN=C(c2cc3cc(Oc4ccc(COC)nc4)cc(OC)c3[nH]2)S1 (stereo not drawn)	130 to 132 °C
CCCCCCOC(=O)OC(C)OC1=C(C(=O)Nc2ccccn2)N(C)S(=O)(=O)c2ccccc21 (stereo not drawn)	86 to 87 °C
O=C(O)Cn1c(Cc2ccccc2)ccc(NC(=O)CCc2ccccc2)c1=O	214 to 216 °C
O=c1[nH]c2nc(Cl)nc(Cl)c2s1	191 to 192 °C
O=C1CS[C@@H]2[C@H](NC(=O)Cc3ccccc3)C(=O)N2C1	183 °C
CCOC(=O)OCCn1nc(-c2cc(C(C)(C)C)c(O)c(C(C)(C)C)c2)c2ccc(C)nc21	145 to 146 °C
COc1cc(C(=O)c2c(C)c(OC)c3ccc(C(=O)O)cn23)ccc1[N+](=O)[O-]	287 °C

SMILES	melting point
C=CCN1CC(C(=O)Nc2cc(C)nc(C)n2)CC2c3cccc4[nH]cc(c34)CC21 (stereo not drawn)	182 to 186 °C
O=C1c2ccccc2C(Cc2ccnc(F)c2)(Cc2ccnc(F)c2)c2cc(O)ccc21	219 to 221 °C
O=C1CC(N2C=Nc3cc(Cl)cc(Cl)c3C2)C(=O)N1 (stereo not drawn)	215 to 217 °C
CCN(CC)C(=O)c1c(S(N)(=O)=O)cc(OC)c(OC)c1C(C)C	138 to 140 °C
CCNC(=O)c1ccccc1Nc1nc(Nc2cc3c(cc2OC)CCN(CC(=O)N(C)C)CC3)ncc1Cl	99 to 111 °C
CCCCN(CCCC)C(=O)C1=NN(c2ccccc2)C(C(N)=O)=NN1c1ccccc1	160 to 161 °C
COc1ccc2c(c1)CCC1C2=CCC2(C)C(OC(C)(C)C)CCC12 (single isomer, unassigned; (+))	131 to 132 °C
CCC(=O)NCc1cccc2c1C(=O)N(C1CCC(=O)NC1=O)C2=O (stereo not drawn)	219 to 221 °C
C#CC1(OC(C)=O)CCC2C3CC(=C)C4=CC(=O)CCC4(C)C3CCC21C (stereo not drawn)	158 to 160 °C
Oc1cc(-c2ccc(Cl)cc2)nc2ccc(F)cc12	> 350 °C
Cc1nc(-n2ccc(OCc3ccccc3)cc2=O)[nH]c1C(=O)NCc1ccccc1	183 to 184 °C
Nc1c(Cl)ccc2c1C(=O)CO2	160 °C
Cc1cc(C)nc(SCc2nccc(SCCCSc3ccc4ncc([N+](=O)[O-])n4n3)c2C)n1	145 to 147 °C
CN(C)c1ccc(-c2cnc3[nH]cc(C(=O)C4(C)CCCCC4)c3n2)cc1	272 to 274 °C
Brc1cccc(OCc2ccc3ccccc3c2)n1	67 to 69 °C
O=C(Nc1nnn[nH]1)c1ccc2nc3ccsc3c(=O)n2c1	295 to 296 °C
O=S(=O)(Nc1cccc(CCOCc2csc(-c3ccccc3)n2)c1)C(F)(F)F	112 to 113 °C
OCC1(c2ccccc2)CCCC1	41 to 44 °C
CC(Oc1ccc(COc2ccc(Cl)cc2)cc1)C(=O)OCCOc1cc(Cl)c(Cl)cc1Cl (stereo not drawn)	83 °C
CCC1(O)CC(=O)OCc2c1ccnc2OC (stereo not drawn)	97 to 98 °C
COC(=O)/C(C#N)=C/c1cc(OC)c(OCCCl)cc1[N+](=O)[O-]	157 to 160 °C
CCN(CC)C(=O)Nc1ccc(S(=O)(=O)n2c(=O)n(-c3ccccc3Cl)c3cc(Cl)ccc32)cc1	222 °C
O=CN1C(=O)NC(=O)C12C(=O)N(Cc1ccc(Cl)c(Cl)c1)c1ccccc12 (stereo not drawn)	244 to 246 °C
